Entries after “also recorded” stand apart in the source; their conditions may differ.
Legend:
[1] = heat and accelerated stability study of solution in methanol; format: physicochemical
Description: Then, the rate constant of degradation at each temperature was calculated, and the shelf life of the solution at each temperature was calculated.

[2] = pH-solubility profile; format: physicochemical; settings: for solubility at 48 h: aqueous buffer
Description: All buffers were at a concentration of 0.05 M. The experiment was performed in the same way as the previous experiment on solubility.

[3] = design: method as in PMID 25153538; settings: non-fasting conditions; cited from earlier work
[4] = cited from earlier work
[5] = short-term (24 h) stability of solution in methanol; format: physicochemical; settings: room temperature
[6] = cited from earlier work; remark: listed apart in the source
[7] = cited from earlier work; remark: listed apart in the source
[8] = photostability in solution and solid state; format: physicochemical
[9] = design: method as in PMID 23639470; settings: 20 to 300 mg every 12 h; cited from earlier work
[10] = pH stability and pH-rate profile; format: physicochemical; settings: methanolic citrate buffer, pH 3.5, 5 and 6.2
Description: A citrate buffer at three pH values was prepared as described above (pH of 3.5, 5, and 6.2). […] The aim was to calculate the rate constant at each pH level and plot it against the pH values.

[11] = design: method as in PMID 21575866; settings: compared with free plasma concentration; cited from earlier work
[12] = system: NCI-H2228 cell line; design: method as in PMID 25205428; settings: oral administration, cited from earlier work
[13] = sink conditions for dissolution test at pH 6.8 and 4.5; format: physicochemical; settings: 37 °C, 24 h, dose 150 mg, media M1-M16
Description: The sink conditions are necessary to perform a successful dissolution test for oral solid dosage forms. […] Phosphate buffer (pH of 6.8) and acetate buffer (pH of 4.5) were prepared. Then, SLS, Tween 80, and ethanol were tried in different concentrations to achieve the target.

[14] = solubility study in water and different solvents; format: physicochemical; settings: thermodynamic from solid
Description: Then, they were covered with aluminum foil to exclude the light effect. Then, all tubes were put in a water bath at 25 ± 1 °C and 50 rpm for 48 h to reach equilibrium. After that, the samples were filtered using a 0.22 µm filter, and 1 mL was injected into the HPLC. Any sample with a high reading was diluted with the mobile phase.

[15] = known description, no reference given; cited from earlier work

CCc1cc2c(cc1N1CCC(N3CCOCC3)CC1)C(C)(C)c1[nH]c3cc(C#N)ccc3c1C2=O.Cl [ALBHCL, 9-ethyl-6,6-dimethyl-8-[4-(morpholin-4-yl)piperidin-1-yl]-11-oxo-6,11-dihydro-5H-benzo[b]carbazole-3-carbonitrile-hydrochloride]
rate constant K1 (at 25 °C) ([1]; extrapolated to 25 °C): 0.00075 h⁻¹ | half-life ([1]; solution in methanol, 25 °C): 38.5 days | shelf-life of solution ([1]; solution in methanol, 25 °C, 0.105/K25): 140 h | rate constant of degradation (first-order) K50 °C ([1]; solution in methanol, 50 °C): 0.01013 h⁻¹ | rate constant of degradation (first-order) K55 °C ([1]; solution in methanol, 55 °C): 0.01382 h⁻¹ | rate constant of degradation (first-order) K60 °C ([1]; solution in methanol, 60 °C): 0.02579 h⁻¹ | solubility at 48 h ([2]; pH 3.5, citrate buffer 0.05 M): 50 µg/mL | solubility at 48 h ([2]; pH 5, citrate buffer 0.05 M): 25.8 µg/mL | stability at pH 1.2 ([2]; pH 1.2, chloride buffer, chromatogram after 24 h): showed degradation; also recorded: instability | pH of maximum solubility ([2]; pH 1.2 to 10): 3.5 | increase of AUC [3]: 20% | increase of Cmax [3]: 20% | adverse drug reaction: drug-induced liver injury [4]: 1.3% | adverse drug reaction: interstitial lung disease [4]: 1.3% | adverse drug reaction: photosensitivity reaction [4]: 5.3% | adverse drug reaction: stomatitis [4]: 3.3% | adverse drug reaction: weight gain [4]: 9.9% | nephrotoxicity [4]: reported in rare cases | bradycardia ([4]; increased exposure, ref Pruis et al. 17): linked to bradycardia | duration of stability of solutions [5]: 24 h | lipophilicity [6]: highly lipophilic | logP ([6]; no method or reference given): 5.5 | route of most elimination [7]: feces | remained intact after exposure to light ([8]; solid powder, 36 h light): 82% | recovery from analysis of the powder ([8]; solid powder, light, up to 36 h): 99% | half-life at 50 µg/mL ([8]; solution in methanol exposed to light, solution, light, room temperature, read-out: half-life of photodegradation (converted)): 498 min | intact ALBHCL remaining after exposure to light ([8]; solution in methanol, 36 h light): 32% | rate constant of photodegradation (first-order) K ([8]; solution, light): 0.0829 h⁻¹ | time of peak plasma levels after administration [9]: 2.00 to 4.61 h | effect of pH on stability [10]: increasing the pH would increase stability | measured concentrations in the blood-cerebrospinal fluid (CSF) barrier [11]: approximately equal to the free concentration of ALBHCl in plasma | tumor regression ([12]; NCI-H2228 cell line): notable regression | ED50 of tumor suppression ([12]; tumor-bearing mice): 0.46 mg/kg | dissolution media that fulfilled sink conditions [13]: phosphate buffer 6.8 + 2% SLS (M3), phosphate buffer 6.8 + 5% Tween 80 (M6), acetate buffer 4.5 + 2% SLS (M11), and acetate buffer 4.5 + 5% Tween 80 (M14) | solubility at 48 h ([14]; PEG 400, organic solvent or mixture, PEG400, 25 °C, read-out: solubility): 260 ± 6 µg/mL | solubility at 48 h ([14]; organic solvent or mixture, DMSO, 25 °C, read-out: solubility): 4500 ± 6.1 µg/mL | solubility at 48 h ([14]; organic solvent or mixture, THF, 25 °C, read-out: solubility): 280.9 ± 2.4 µg/mL | solubility at 48 h ([14]; organic solvent or mixture, acetonitrile, 25 °C, read-out: solubility): 150.2 ± 1.1 µg/mL | solubility at 48 h ([14]; organic solvent or mixture, chloroform, 25 °C, read-out: solubility): 620.3 ± 0.58 µg/mL | solubility at 48 h ([14]; organic solvent or mixture, ethanol, 25 °C, read-out: solubility): 210 ± 4.5 µg/mL | solubility at 48 h ([14]; organic solvent or mixture, methanol, 25 °C, read-out: solubility): 1991 ± 7.2 µg/mL | solubility at 48 h ([14]; propylene glycol, organic solvent or mixture, PG, 25 °C, read-out: solubility): 211 ± 5.8 µg/mL | solubility at 48 h ([14]; water, 25 °C, read-out: absolute solubility): 10.3 ± 1.2 µg/mL | solubility in water, descriptive [15]: practically insoluble

Source: paper PMC11206852, “Solubility, pH-Solubility Profile, pH-Rate Profile, and Kinetic Stability of the Tyrosine Kinase Inhibitor, Alectinib” (Pharmaceuticals, 2024)
